Test results reported in ChEMBL document CHEMBL1759838, “Synthesis and SAR of acyclic HCV NS3 protease inhibitors with novel P4-benzoxaborole moieties” (Bioorg Med Chem Lett, 2011).

Tests used:
Hepatitis C virus [1] = test: Antiviral activity against Hepatitis C virus genotype 1a by cell based assay; format: functional, organism-based, Hepacivirus hominis; conditions: subtype 1a
[2] = Inhibition of Hepatitis C virus genotype 1a NS3/4A protease activity using (Ac-DE-D(EDANS)-EE-Abu-w-[COO]-AS-K(DABCYL)-NH2 peptide substrate by FRET assay; set-up: species or system Hepatitis C virus subtype 1a
Hepatitis C virus [3] = test: Antiviral activity against Hepatitis C virus genotype 1b by cell based assay; format: functional, organism-based, Hepacivirus hominis
[4] = Inhibition of Hepatitis C virus genotype 1a NS3/4A protease activity using Ac-DE-Dap(QXL520)-EE-Abu-w-[COO]-ASC(5-FAMsp)-NH2 peptide substrate by FRET assay; set-up: species or system Hepatitis C virus subtype 1a
[5] = Absorption in Sprague-Dawley rat at 5 mg/kg, po; format: ADME, organism-based; set-up: dose 5 mg/kg, route oral; conditions: in vivo, read-out: Activity
[6] = Lipophilicity, log D of the compound; format: physicochemical; conditions: octanol/water
[7] = Clearance in Sprague-Dawley rat at 1 mg/kg, iv; format: ADME, organism-based; set-up: dose 1 mg/kg, route intravenous; conditions: in vivo
[8] = AUC (0 to infinity) in Sprague-Dawley rat at 5 mg/kg, po; format: ADME, organism-based; set-up: dose 5 mg/kg, route oral, time infinity; conditions: plasma
[9] = Oral bioavailability in Sprague-Dawley rat at 5 mg/kg, po; format: ADME, organism-based; conditions: in vivo

Compound	EC50 (Hepatitis C virus [1]) [nM]	IC50 [2] [nM]	EC50 (Hepatitis C virus [3]) [nM]	IC50 [4] [nM]	Fa [5] [%]	logD [6]	clearance [7] [mL/min/kg]	AUC(0-inf) [8] [ng·h/mL]	bioavailability [9] [%]
C=C[C@@H]1C[C@]1(NC(=O)[C@@H]1C[C@@H](Oc2cc(-c3nc(C(C)C)cs3)nc3c(C)c(OC)ccc23)CN1C(=O)[C@@H](NC(=O)Nc1cc2c(cc1F)COB2O)C(C)(C)C)C(=O)NS(=O)(=O)C1CC1	8.1	3.1	8.6	–	–	–	–	–	–
C=C[C@@H]1C[C@]1(NC(=O)[C@@H]1C[C@@H](Oc2ncc(OC)c3ccc(Cl)cc23)CN1C(=O)[C@@H](NC(=O)Nc1cc2c(cc1Cl)COB2O)C(C)(C)C)C(=O)NS(=O)(=O)C1CC1	47	1.3	34	–	–	–	–	–	–
C=C[C@@H]1C[C@]1(NC(=O)[C@@H]1C[C@@H](Oc2ncc(OC)c3ccc(Cl)cc23)CN1C(=O)[C@@H](NC(=O)Oc1ccc2c(c1)B(O)OC2)C(C)(C)C)C(=O)NS(=O)(=O)C1CC1	170	–	23	1.3	–	–	–	–	–
C=C[C@@H]1C[C@]1(NC(=O)[C@@H]1C[C@@H](Oc2ncc(OC)c3ccc(Cl)cc23)CN1C(=O)C(Nc1ccc2c(c1)B(O)OC2)C(C)(C)C)C(=O)NS(=O)(=O)C1CC1 (single isomer, unassigned; diastereomer 2)	–	350	–	–	–	–	–	–	–
C=C[C@@H]1C[C@]1(NC(=O)[C@@H]1C[C@@H](Oc2ncc(OC)c3ccc(Cl)cc23)CN1C(=O)[C@@H](NC(=O)Nc1ccc2c(c1)B(O)OC2(C)C)C(C)(C)C)C(=O)NS(=O)(=O)C1CC1	280	26	130	–	–	–	–	–	–
C=C[C@@H]1C[C@]1(NC(=O)[C@@H]1C[C@@H](Oc2ncc(OC)c3ccc(Cl)cc23)CN1C(=O)[C@@H](NC(=O)Nc1cc2c(cc1F)COB2O)C(C)(C)C)C(=O)NS(=O)(=O)C1CC1	31	–	4.3	1.7	–	–	–	–	–
C=C[C@@H]1C[C@]1(NC(=O)[C@@H]1C[C@@H](Oc2ncc(OC)c3ccc(Cl)cc23)CN1C(=O)[C@@H](NC(=O)c1ccc2c(c1)B(O)OC2)C(C)(C)C)C(=O)NS(=O)(=O)C1CC1	290	4.6	91	–	–	–	–	–	–
C=C[C@@H]1C[C@]1(NC(=O)[C@@H]1C[C@@H](Oc2ncc(OC)c3ccc(Cl)cc23)CN1C(=O)[C@@H](NC(=O)Nc1cccc2c1COB2O)C(C)(C)C)C(=O)NS(=O)(=O)C1CC1	500	4	81	–	–	–	–	–	–
C=C[C@@H]1C[C@]1(NC(=O)[C@@H]1C[C@@H](Oc2ncc(OC)c3ccc(Cl)cc23)CN1C(=O)[C@@H](Nc1ccc2c(c1)B(O)OC2)C(C)(C)C)C(=O)NS(=O)(=O)C1CC1	110	4.5	34	–	4.9	4	48.8	75	4.3
C=C[C@@H]1C[C@]1(NC(=O)[C@@H]1C[C@@H](OC(=O)N2Cc3cccc(F)c3C2)CN1C(=O)[C@@H](NC(=O)Nc1cc2c(cc1F)COB2O)C(C)(C)C)C(=O)NS(=O)(=O)C1CC1	360	–	56	1.1	–	–	–	–	–
C=C[C@@H]1C[C@]1(NC(=O)[C@@H]1C[C@@H](Oc2ncc(OC)c3ccc(Cl)cc23)CN1C(=O)[C@@H](NC(=O)Nc1cccc2c1B(O)OC2)C(C)(C)C)C(=O)NS(=O)(=O)C1CC1	65	16	38	–	–	–	–	–	–
C=C[C@@H]1C[C@]1(NC(=O)[C@@H]1C[C@@H](Oc2ncc(OC)c3ccc(Cl)cc23)CN1C(=O)[C@@H](NC(=O)Nc1ccc2c(c1)B(O)OC2)C(C)(C)C)C(=O)NS(=O)(=O)C1CC1	160	–	24	2.2	0.92	4.5	7.93	41	0.42
C=C[C@@H]1C[C@]1(NC(=O)[C@@H]1C[C@@H](Oc2ncc(OC)c3ccc(Cl)cc23)CN1C(=O)[C@@H](NC(=O)NCc1ccc2c(c1)B(O)OC2)C(C)(C)C)C(=O)NS(=O)(=O)C1CC1	130	2	25	–	–	–	–	–	–
